Tests used:
[1] = test system: IFNα stimulated Kit225 T cells (STAT-dependent luciferase reporter); assay: Kit225 T cell assay, IFNα stimulated STAT-dependent luciferase reporter; format: cell-based; conditions: 200 U/mL human recombinant IFNα, 5-6 hours
Protocol: (§1) Kit225 T cells with a stably-integrated STAT-dependent luciferase reporter were plated in RPMI (Gibco) containing 10% heat-inactivated FBS (Gibco) and 100 U/mL PenStrep (Gibco). The cells were then stimulated with either 20 ng/mL human recombinant IL-23 or 200 U/mL human recombinant IFNα (PBL InterferonSource) for 5-6 hours. Luciferase expression was measured using the STEADY-GLO® Luciferase Assay System (Promega) according to the manufacturer's instructions. Inhibition data were calculated by comparison to no inhibitor control wells for 0% inhibition and non-stimulated control wells for 100% inhibition. Dose response curves were generated to determine the concentration required to inhibit 50% of cellular response (IC50) as derived by non-linear regression analysis.

[2] = target: T1, human Tyk2 (amino acids 575-869, His-tagged) (Homo sapiens, UniProt P29597); assay: Probe displacement assay (SPA format); format: binding; conditions: radiolabeled probe 40 nM, Tyk2 2.5 nM
T1 construct: made in house
Protocol: Probe Displacement Assay (SPA Format) The probe displacement assay is conducted as follows: In a […], test compounds along with recombinantly expressed His-tagged protein corresponding to amino acids 575-869 of human Tyk2 (sequence shown below) at 2.5 nM, 40 nM ((R)—N-(1-(3-(8-methyl-5-(methylamino)-8H-imidazo [4,5-d]thiazolo [5,4-b]pyridin-2-yl)phenyl)ethyl)-2-([^3H]methylsulfonyl)benzamide) (preparation described below) and 80 μg/mL Copper His-Tag scintillation proximity assay beads (Perkin Elmer, Catalog # RPNQ0095) in 50 mM HEPES, pH 7.5, containing 100 μg/mL bovine serum albumin and 5% DMSO were incubated for 30 minutes at room temperature. The amount of radiolabeled probe (preparation described below) bound to Tyk2 was then quantified by scintillation counting, and the inhibition by the test compound calculated by comparison to wells either with no inhibitor (0% inhibition) or without Tyk2 (100% inhibition). The EC50 value is defined as the concentration of test compound required to inhibit radiolabeled probe binding by 50%. Probe Displacement Assay (HTRF Format)

[3] = test system: IL-23 stimulated Kit225 T cells (STAT-dependent luciferase reporter); assay: Kit225 T cell assay, IL-23 stimulated STAT-dependent luciferase reporter; format: cell-based; conditions: 20 ng/mL human recombinant IL-23, 5-6 hours
Protocol: as §1

[4] = target: T2, recombinant human His-tagged Tyk2 pseudokinase domain (His-TVMV-Tyk2, 575-869) (Homo sapiens, UniProt P29597); assay: Probe displacement assay (HTRF format); format: binding; conditions: fluorescein labeled probe, Tyk2 pseudokinase domain 0.5 nM
T2 construct: made in house
Protocol: To 10 μL 26 nM fluorescein labeled probe plus 0.2 nM anti-6×His-terbium labeled antibody (Medarex, labeled by Cisbio) in assay buffer (20 mM Hepes pH 7.5, 150 mM NaCl, 10 mM MgCl2, 2 mM DTT, 50 μg/mL BSA, and 0.015% Brij 35) was added 10 μL recombinant human His-tagged Tyk2 pseudokinase domain (His-TVMV-Tyk2, 575-869) to a final concentration of 0.5 nM. After 1 h at room temperature, the HTRF signal (ratio of fluorescence intensities at emission wavelengths for fluorescein acceptor at 520 nm and terbium donor at 495 nm) was measured on an Envision Plate Reader. Percent inhibition was calculated by comparison to a control without inhibitor and a control without protein. Dose response curves were generated to determine the concentration required for inhibiting 50% of the HTRF signal (EC50).

T1 sequence (P29597 with tags, fused parts or gaps): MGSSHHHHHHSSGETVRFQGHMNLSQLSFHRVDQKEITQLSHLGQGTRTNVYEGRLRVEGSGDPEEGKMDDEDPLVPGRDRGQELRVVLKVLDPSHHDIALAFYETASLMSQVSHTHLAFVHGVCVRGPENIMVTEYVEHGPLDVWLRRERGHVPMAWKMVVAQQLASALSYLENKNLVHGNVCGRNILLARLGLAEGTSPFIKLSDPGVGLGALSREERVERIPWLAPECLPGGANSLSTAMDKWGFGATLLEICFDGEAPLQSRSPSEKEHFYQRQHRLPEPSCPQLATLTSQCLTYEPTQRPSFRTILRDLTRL
T2 sequence (P29597 with tags, fused parts or gaps): as above

| Structure (SMILES) | IC50 [1] | EC50 [2] | IC50 [3] | EC50 [4] |
| --- | --- | --- | --- | --- |
| Cc1nc2c(Nc3ccccc3S(C)(=O)=O)cc(Nc3ccc(N4CCCC4=O)cn3)nc2[nH]1 [Example 24, 1-[6-({7-[(2-methanesulfonylphenyl)amino]-2-methyl-3H-imidazo[4,5-b]pyridin-5-yl}amino)pyridin-3-yl]pyrrolidin-2-one] | 636 nM | 15 nM | 1230 nM | – |
| Cc1nc2c(Nc3ccccc3S(C)(=O)=O)cc(Nc3ccn4nccc4n3)nc2[nH]1 [Example 27, 7-N-(2-methanesulfonylphenyl)-2-methyl-5-N-{pyrazolo[1,5-a]pyrimidin-5-yl}-3H-imidazo[4,5-b]pyridine-5,7-diamine] | 123 nM | 4 nM | 327 nM | – |
| Cc1nc2c(Nc3ccccc3C(N)=O)cc(Nc3ccc(F)cn3)nc2[nH]1 [Example 32, 2-({5-[(5-fluoropyridin-2-yl)amino]-2-methyl-3H-imidazo[4,5-b]pyridin-7-yl}amino)benzamide] | 1160 nM | 167 nM | 3310 nM | – |
| COc1ccccc1Nc1cc(NC(=O)C2CC2)nc2[nH]c(C)nc12 [Example 35, N-{7-[(2-methoxyphenyl)amino]-2-methyl-3H-imidazo[4,5-b]pyridin-5-yl}cyclopropanecarboxamide] | 5130 nM | 814 nM | 3140 nM | – |
| COc1ccccc1Nc1cc(Nc2cc(C)nc(C)n2)nc2[nH]c(C)nc12 [Example 36, 5-N-(2,6-dimethylpyrimidin-4-yl)-7-N-(2-methoxyphenyl)-2-methyl-3H-imidazo[4,5-b]pyridine-5,7-diamine] | 1520 nM | 291 nM | 824 nM | – |
| COc1ccccc1Nc1cc(Nc2ccc(N3CCOCC3)cn2)nc2[nH]c(C)nc12 [Example 37, 7-N-(2-methoxyphenyl)-2-methyl-5-N-[5-(morpholin-4-yl)pyridin-2-yl]-3H-imidazo[4,5-b]pyridine-5,7-diamine] | 1040 nM | 432 nM | 3880 nM | – |
| COc1ccccc1Nc1cc(Nc2ccc(F)cn2)nc2[nH]c(C)nc12 [Example 38, 5-N-(5-fluoropyridin-2-yl)-7-N-(2-methoxyphenyl)-2-methyl-3H-imidazo[4,5-b]pyridine-5,7-diamine] | 5180 nM | 509 nM | 8070 nM | – |
| COc1c(Nc2cc(NC(=O)C3CC3)nc3[nH]c(C)nc23)cccc1-c1ncn(C)n1 [Example 39, N-(7-{[2-methoxy-3-(1-methyl-1H-1,2,4-triazol-3-yl)phenyl]amino}-2-methyl-3H-imidazo[4,5-b]pyridin-5-yl)cyclopropanecarboxamide] | 2720 nM | 17 nM | 3010 nM | – |
| COc1c(Nc2cc(Nc3ccc(F)cn3)nc3[nH]c(C)nc23)cccc1-c1ncn(C)n1 [Example 40, 5-N-(5-fluoropyridin-2-yl)-7-N-[2-methoxy-3-(1-methyl-1H-1,2,4-triazol-3-yl)phenyl]-2-methyl-3H-imidazo[4,5-b]pyridine-5,7-diamine] | 1240 nM | 38 nM | 738 nM | – |
| Cc1nc2c(Nc3ncccc3S(C)(=O)=O)cc(Nc3ccc(F)cn3)nc2[nH]1 [Example 41, 5-N-(5-fluoropyridin-2-yl)-7-N-(3-methanesulfonylpyridin-2-yl)-2-methyl-3H-imidazo[4,5-b]pyridine-5,7-diamine] | 68 nM | – | 28 nM | 0.4 nM |
| COc1ccc(Nc2cc(Nc3ncccc3S(C)(=O)=O)c3nc(C)[nH]c3n2)nc1 [Example 42, 7-N-(3-methanesulfonylpyridin-2-yl)-5-N-(5-methoxypyridin-2-yl)-2-methyl-3H-imidazo[4,5-b]pyridine-5,7-diamine] | 67 nM | – | 75 nM | 0.6 nM |
| Cc1nc2c(Nc3ncccc3S(C)(=O)=O)cc(Nc3cc(F)ccn3)nc2[nH]1 [Example 43, 5-N-(4-fluoropyridin-2-yl)-7-N-(3-methanesulfonylpyridin-2-yl)-2-methyl-3H-imidazo[4,5-b]pyridine-5,7-diamine] | 45 nM | – | 53 nM | 0.8 nM |
| CCc1nc2c(Nc3ccccc3S(C)(=O)=O)cc(Nc3cc(C)nc(C)n3)nc2[nH]1 [Example 52, 5-N-(2,6-dimethylpyrimidin-4-yl)-2-ethyl-7-N-(2-methanesulfonylphenyl)-3H-imidazo[4,5-b]pyridine-5,7-diamine] | 4260 nM | 107 nM | 1410 nM | – |

Continued, values first:

| IC50 [1] | EC50 [2] | IC50 [3] | EC50 [4] | Structure (SMILES) |
| --- | --- | --- | --- | --- |
| 401 nM | 53 nM | 407 nM | – | Cc1ccnc(Nc2cc(Nc3ccccc3S(C)(=O)=O)c3nc(C)[nH]c3n2)c1 [Example 20, 7-N-(2-methanesulfonylphenyl)-2-methyl-5-N-(4-methylpyridin-2-yl)-3H-imidazo[4,5-b]pyridine-5,7-diamine] |
| 201 nM | 27 nM | 261 nM | – | Cc1ccc(Nc2cc(Nc3ccccc3S(C)(=O)=O)c3nc(C)[nH]c3n2)nc1 [Example 21, 7-N-(2-methanesulfonylphenyl)-2-methyl-5-N-(5-methylpyridin-2-yl)-3H-imidazo[4,5-b]pyridine-5,7-diamine] |
| 44 nM | 5 nM | 81 nM | – | Cc1nc2c(Nc3ccccc3S(C)(=O)=O)cc(Nc3cccc(C(F)(F)F)n3)nc2[nH]1 [Example 23, 7-N-(2-methanesulfonylphenyl)-2-methyl-5-N-[6-(trifluoromethyl)pyridin-2-yl]-3H-imidazo[4,5-b]pyridine-5,7-diamine] |
| 126 nM | 7 nM | 205 nM | – | Cc1nc2c(Nc3ccccc3S(C)(=O)=O)cc(Nc3ccc(C#N)c(C)n3)nc2[nH]1 [Example 25, 6-({7-[(2-methanesulfonylphenyl)amino]-2-methyl-3H-imidazo[4,5-b]pyridin-5-yl}amino)-2-methylpyridine-3-carbonitrile] |
| 119 nM | 15 nM | 140 nM | – | Cc1nc2c(Nc3ccccc3S(C)(=O)=O)cc(Nc3cc(C)n(C)n3)nc2[nH]1 [Example 26, 5-N-(1,5-dimethyl-1H-pyrazol-3-yl)-7-N-(2-methanesulfonylphenyl)-2-methyl-3H-imidazo[4,5-b]pyridine-5,7-diamine] |
| 53 nM | 9 nM | 70 nM | – | Cc1nc2c(Nc3ccccc3S(C)(=O)=O)cc(Nc3cc(C)c(C#N)c(C)n3)nc2[nH]1 [Example 28, 6-({7-[(2-methanesulfonylphenyl)amino]-2-methyl-3H-imidazo[4,5-b]pyridin-5-yl}amino)-2,4-dimethylpyridine-3-carbonitrile] |
| 35 nM | 6 nM | 21 nM | – | Cc1cccc(Nc2cc(Nc3ccccc3S(C)(=O)=O)c3nc(C)[nH]c3n2)n1 [Example 29, 7-N-(2-methanesulfonylphenyl)-2-methyl-5-N-(6-methylpyridin-2-yl)-3H-imidazo[4,5-b]pyridine-5,7-diamine] |
| 503 nM | 58 nM | 579 nM | – | Cc1nc2c(Nc3ccccc3S(C)(=O)=O)cc(Nc3ccn(C(C)C)n3)nc2[nH]1 [Example 30, 7-N-(2-methanesulfonylphenyl)-2-methyl-5-N-[1-(propan-2-yl)-1H-pyrazol-3-yl]-3H-imidazo[4,5-b]pyridine-5,7-diamine] |
| 105 nM | 12 nM | 235 nM | – | Cc1nc2c(Nc3ccccc3S(C)(=O)=O)cc(Nc3cc(C)c(F)cn3)nc2[nH]1 [Example 31, 5-N-(5-fluoro-4-methylpyridin-2-yl)-7-N-(2-methanesulfonylphenyl)-2-methyl-3H-imidazo[4,5-b]pyridine-5,7-diamine] |
| 1420 nM | 158 nM | 1470 nM | – | CCc1nc2c(Nc3ccccc3S(C)(=O)=O)cc(Nc3ccc(F)cn3)nc2[nH]1 [Example 51, 2-ethyl-5-N-(5-fluoropyridin-2-yl)-7-N-(2-methanesulfonylphenyl)-3H-imidazo[4,5-b]pyridine-5,7-diamine] |

— patent publication US10781215B2, “Heterobicyclic compounds useful as modulators of IL-12, IL-23 and/or IFNα responses” (BRISTOL-MYERS SQUIBB COMPANY, priority 2016, dated 2020)
